Like-named read-outs stand apart in the source and are kept apart here. Marks after values point to notes of the source that are not given here.
Experiments:
HLA-B*58:01 [1] = target: T1, HLA-B*58:01 (Homo sapiens, UniProt P01889, A329T/C349S/D201E/D98Y/E176V/E187L/E204Q/E69T/G107R/I218V/I90N/K202T/L105A/L119I/N104I/N87E/Q89R/Q94S/R106L/R155S/R180L/R86G/S101N/S121R/S35A/S48A/T118I/V127L/V306I/V36M/Y140S/Y91M); type: binding; conditions: percent relative the binding of positive control peptide […]; duplicated experiments; positive binder >40%
HLA-B*58:01 [2] = target: T1, HLA-B*58:01; type: binding
HLA-B*58:01 [3] = target: T1, HLA-B*58:01; type: binding; conditions: time points 0-8 h
HLA-C*07:01 [4] = target: T2, HLA-C*07:01 (Homo sapiens, UniProt P10321, K90N/S123Y); type: binding; conditions: percent relative the binding of positive control peptide […]; duplicated experiments; positive binder >40%
HLA-C*07:01 [5] = target: T2, HLA-C*07:01; experiment: affinity assay (ED50); type: binding
HLA-C*07:01 [6] = target: T2, HLA-C*07:01; experiment: off-rate assay (t1/2); type: binding; conditions: time points 0-8 h
HLA-A*30:02 [7] = target: T3, HLA-A*30:02 (Homo sapiens, UniProt P04439, D101N/D140H/D185E/E176R/F33S/G80R/H175R/K168Q/Q94H/R138E/R41S/V100E); conditions: cited from earlier work
HLA-A*30:02 [8] = target: T3, HLA-A*30:02; conditions: cited from earlier work; remark: listed apart in the source
HLA-A*30:02 [9] = target: T3, HLA-A*30:02; conditions: cited from earlier work; remark: listed apart in the source
HLA-B*07:02 [10] = target: T4, HLA-B*07:02 (Homo sapiens, UniProt P01889); conditions: cited from earlier work
HLA-B*07:02 [11] = target: T4, HLA-B*07:02; conditions: cited from earlier work; remark: listed apart in the source
HLA-B*07:02 [12] = target: T4, HLA-B*07:02; conditions: cited from earlier work; remark: listed apart in the source
HLA-A*68:01 = HLA-A*68:01 (Homo sapiens, UniProt P04439, A269V/D185E/E176V/E277Q/E87N/F33Y/G231S/I121M/I166T/I218V/L180W/L300P/L318F/N151K/P208A/P217A/Q86R/R169H/T345S); type: binding; conditions: percent relative the binding of positive control peptide […]; duplicated experiments; positive binder >40%
HLA-A*02:01 [13] = target: T5, HLA-A*02:01 (Homo sapiens, UniProt P04439, D140Y/D185E/D98H/E176V/E277Q/G131W/G231S/I119V/I121R/I166T/I218V/L300P/L318F/N151K/N90K/P208A/P217A/Q86G/Q94H/R138H/R169H/T345S); conditions: cited from earlier work
HLA-A*02:01 [14] = target: T5, HLA-A*02:01; conditions: cited from earlier work; remark: listed apart in the source
HLA-A*02:01 [15] = target: T5, HLA-A*02:01; conditions: cited from earlier work; remark: listed apart in the source
HLA-A*24:02 [16] = target: T6, HLA-A*24:02 (Homo sapiens, UniProt P04439, D101N/D140Y/D185E/E176V/E190D/F33S/G103R/G107R/I119L/I121M/I306V/K335N/L105A/L180Q/L300P/N151K/N90K/Q86E/Q94H/R106L/R138H/R89G/T104I/T345S/V100E/W191G/Y123F); conditions: percent relative the binding of a positive control peptide; […]; cited from earlier work
HLA-A*24:02 [17] = target: T6, HLA-A*24:02; conditions: cited from earlier work
HLA-A*24:02 [18] = target: T6, HLA-A*24:02; conditions: cited from earlier work; remark: listed apart in the source
HLA-A*30:01 [19] = target: T7, HLA-A*30:01 (Homo sapiens, UniProt P04439, D140H/D185E/E176W/F33S/G80R/H175R/K168Q/R138E/R41S); conditions: cited from earlier work
HLA-A*30:01 [20] = target: T7, HLA-A*30:01; conditions: cited from earlier work; remark: listed apart in the source
HLA-A*30:01 [21] = target: T7, HLA-A*30:01; conditions: cited from earlier work; remark: listed apart in the source
[22] = percent relative the binding of a positive control peptide, […]
[23] = percent relative the binding of a positive control peptide, wild-type epitopes marked **

Sequence	Bind B*58:01 (HLA-B*58:01 [1])	Aff B*58:01 (ED50) (HLA-B*58:01 [2])	O-rate B*58:01 (t1/2) (HLA-B*58:01 [3])	Bind C*07:01 (HLA-C*07:01 [4])	Aff C*07:01 (ED50) (HLA-C*07:01 [5])	O-rate C*07:01 (t1/2) (HLA-C*07:01 [6])	Bind A*30:02 (HLA-A*30:02 [7]; [22])	Aff A*30:02 (ED50) (HLA-A*30:02 [8])	O-rate A*30:02 (t1/2) (HLA-A*30:02 [9])	Bind B*07:02 (HLA-B*07:02 [10]; [22])	Aff B*07:02 (ED50) (HLA-B*07:02 [11])	O-rate B*07:02 (t1/2) (HLA-B*07:02 [12])	Aff A*02:01 (ED50) (HLA-A*02:01 [14])	O-rate A*02:01 (t1/2) (HLA-A*02:01 [15])	Bind A*24:02 (HLA-A*24:02 [16])	Aff A*24:02 (ED50) (HLA-A*24:02 [17])	O-rate A*24:02 (t1/2) (HLA-A*24:02 [18])	Aff A*30:01 (ED50) (HLA-A*30:01 [20])	O-rate A*30:01 (t1/2) (HLA-A*30:01 [21])	further results
RAYHAMSST [Rv0288_67–75wt]	39%	10000 nM	0.2 h	35%	10000 nM	0.2 h	73** percent	1000 nM	1.2 h	39* percent	20000 nM	0.8 h	–	–	–	–	–	–	–	–
IMYNYPAML [Rv0288_4–12]	110%	200 nM	1.0 h	67%	200 nM	0.2 h	–	8 nM	3.1 h	35* percent	30000 nM	1.6 h	800 nM	26.9 h	107* percent	100 nM	1.6 h	5000 nM	0.5 h	Bind A*68:01 (HLA-A*68:01): 0%; Bind A*02:01 (HLA-A*02:01 [13]; [22]): 94* percent; Bind A*30:01 (HLA-A*30:01 [19]; [22]): 146** percent; Bind A*30:02 (HLA-A*30:02 [7]): 91** percent
QIMYNYPAM [Rv0288_3–11wt]	34%	10000 nM	0.4 h	–	–	–	90** percent	40 nM	1.1 h	–	800000 nM	1.5 h	1000 nM	1.1 h	55* percent	1000 nM	0.1 h	4000 nM	0.8 h	Bind A*02:01 (HLA-A*02:01 [13]): 68* percent; Bind A*30:01 (HLA-A*30:01 [19]): 163** percent; Bind B*07:02 (HLA-B*07:02 [10]): 28* percent
LVRAYHAMS [Rv0288_65–73wt]	–	–	–	–	–	–	–	–	–	–	–	–	–	–	–	–	–	–	–	Bind A*30:01 (HLA-A*30:01 [19]; [23]): 158** percent; Aff A*30:01 (ED50) (HLA-A*30:01 [20]; wild-type epitopes marked **): 2000 nM; O-rate A*30:01 (t1/2) (HLA-A*30:01 [21]; wild-type epitopes marked **): 1.8 h; Bind A*30:02 (HLA-A*30:02 [7]; [23]): 75** percent; Aff A*30:02 (ED50) (HLA-A*30:02 [8]; wild-type epitopes marked **): 2000 nM; O-rate A*30:02 (t1/2) (HLA-A*30:02 [9]; wild-type epitopes marked **): 1.0 h
